# Patent EP4455142A1, “NOVEL INHIBITOR OF QPCTL AND/OR QC” (Scenic Immunology B.V., priority 2023, dated 2024)
# Test system: Raji human Burkitt's lymphoma cells
# Experiment: In vivo Raji xenograft mouse model
# Design: species or system NSG mice
# Conditions: (1) 100 mg/kg orally once daily in combination with Rituximab 10 mg/kg intravenously Q3D, versus Rituximab alone
# Protocol: Anti tumor effects were determined in a model for Burkitt's lymphoma. NSG mice were intravenuously injected with 1 × 10^6 Raji human Burkitt's lymphoma cells. Four days after tumor cell injection, animals were treated with compound (1) as a single agent and in combination with Rituximab (anti-CD20 antibody). Compound (1) was administered at 100 mg/kg orally, once daily. Rituximab was dosed at 10 mg/kg intravenously every third day (Q3D). Tumor progression was evaluated by monitoring animal health and body weight measurement. […] Animals treated with compound in combination with Rituximab, on average, lived 5.5 days longer than animals treated with Rituximab alone.
smiles,measurement,value
O=C1OC[C@H](c2ccc(-c3cnn(C(F)(F)F)c3)cc2F)N1c1ccc2[nH]cnc2c1 [Compound (1)],lived longer than animals treated with Rituximab alone (on average),5.5 days
